# Patent US20120196933A1, “MEXILETINE PRODRUGS” (priority 2010, published 2012)
# Where “and” joins values, the source holds several entries; their conditions need not be identical. Equal entries are not always repeated. Where two headings read alike, the source gives them in different places. Marks after values point to notes of the source that are not given here.
# Key:
# [1] = Systemic availability of mexiletine in the cynomolgus monkey from mexiletine prodrugs (oral gavage); assay type: in vivo; conditions: 1 mg/kg mexiletine free base
# Protocol: Test substances (i.e., mexiletine, and various mexiletine amino acid prodrugs) were administered by oral gavage to groups of two and, in one case, five male cynomolgus monkeys. Blood samples were taken at various times after administration and submitted to analysis for the parent drug using a validated LC-MS-MS assay. Pharmacokinetic parameters derived from the plasma bioanalytical data were determined using Win Nonlin.
# [2] = In vitro stability of mexiletine prodrugs under conditions prevailing in the gut; assay type: physicochemical; conditions: 0.1M phosphate buffer pH 7.4, 2 h
# [3] = rat
# Protocol: Test substances (i.e., mexiletine & mexiletine glutamic acid amide) were administered by oral gavage to groups of five male Sprague Dawley rats.
# Blood samples were taken at various times after administration and submitted to analysis for the prodrug and parent drug using a validated LC-MS-MS assay. Pharmacokinetic parameters derived from the plasma analytical were determined using Win Nonlin.
# [4] = system: 9-AC induced myotonia in the rat; test: Anti-myotonic effects in 9-anthracene carboxylic acid (9-AC) treated rats (righting time); assay type: in vivo; conditions: for Mean ± SEM righting response time: 9-AC 30 mg/kg ip
# Protocol: The use of ip injection of 9-anthracene carboxylic acid is known to induce a myotonic state in rats which can then be used to assess the activity of potential anti-myotonic compounds (Villegas-NavarroA et al (1992) Exp. Toxicol. Pathol. 44 34-39).
# Groups of four rats were predosed with 30 mg/kg 9-AC (time 0) and ten minutes later their righting time was assessed repeatedly seven times in rapid succession. They were then dosed po with mexiletine or mexiletine glutamic acid amide at 1, 5, 10, 20 or 40 mg/kg and the righting time reassessed at ˜30, 60, 120 and 180 minutes after 9-AC injection. At each dose level, a group of four control animals, given vehicle alone, was used
# [5] = Systemic availability of mexiletine in the dog from mexiletine prodrugs (oral gavage); assay type: in vivo
# Protocol: Test substances (i.e., mexiletine, and various mexiletine amino acid prodrugs) were administered by oral gavage to groups of two or some cases five dogs. The characteristics of the test animals are set out in Table 6.
# Blood samples were taken at various times after administration and submitted to analysis for parent drug using a validated LC-MS-MS assay. Pharmacokinetic parameters derived from the plasma bioanalytical data were determined using Win Nonlin.
# ADR mouse = test: Anti-myotonic effects in the ADR mouse (righting response); assay type: in vivo
# Protocol: The effects of oral administration of either mexiletine glutamic acid amide at 5, 10 or 20 mg/kg or mexiletine 5 mg/kg on the righting response of a group of three adr/adr mice were examined on three separate days. Each assessment involved placing the individual mice on their back no fewer than seven successive occasions in rapid succession and determining the time to successful righting at various time pre and post dosing (−10, +15, +30, +60, +120 & +180 mins).
# [6] = In vitro stability of mexiletine prodrugs under conditions prevailing in the gut; assay type: physicochemical; conditions: HPLC
# Protocol: To investigate if the prodrugs of the present invention are stable in conditions mimicking the gut, various mexiletine amino acid prodrugs were incubated at 37° C. in simulated gastric and simulated intestinal juice (USP defined composition) for 2 hours. The remaining concentrations of the prodrug were then assayed by HPLC.
# [7] = oral 5 mg mexiletine free base equivalents/kg, individual animals, Hydrochloride
# [8] = oral 5 mg mexiletine free base equivalents/kg, plasma prodrug, individual animals, Hydrochloride
# [9] = oral 5 mg mexiletine free base equivalents/kg, plasma prodrug, mean
# [10] = 1 mg/kg mexiletine free base, plasma mexiletine
smiles,measurement,setting,value
"Cc1cccc(C)c1OCC(C)NC(=O)C(N)CCC(=O)O.Cl (mixture of isomers) [Mexiletine glutamic acid amide, Mexiletine-(S)-Glutamic Acid Amide Hydrochloride]",AUC of mexiletine,[1]; plasma mexiletine,0.604 µg·h/mL
same,Cmax of mexiletine,[1]; plasma mexiletine,0.0906 µg/mL
same,T50% Cmax,[1]; plasma mexiletine,4.76 h
same,F(rel),"[1]; relative to mexiletine, Hydrochloride, 1 mg/kg",87.6%
same,"pH 7.4, 37° C. 0.1M phosphate buffer: % remaining after 2 h/37° C.",[2],100%
same,Overall bioavailability of mexiletine from the prodrug vs mexiletine,[3]; oral,~2.75 fold
same,Frel,"[3]; oral 5 mg mexiletine free base equivalents/kg, individual animals, vs mexiletine, Hydrochloride",163^c % and 152^c % and 232% and 303% and 283%
same,AUC of mexiletine,[3]; [7],29.2* ng · h/mL and 33.3 ng · h/mL and 43.4 ng · h/mL and 40.6 ng · h/mL
same,Cmax of mexiletine,[3]; [7],0.00821 µg/mL and 0.00899 µg/mL and 0.00797 µg/mL and 0.0104 µg/mL and 0.00884 µg/mL
same,T>50% Cmax of mexiletine,[3]; [7],4.1 h (2×) and 2.5 h and 2.4 h and 3.9 h
same,Tmax of mexiletine,[3]; [7],1 h (3×) and 2 h (2×)
same,t 1/2 of mexiletine,[3]; [7],1.8* h and 2.6 h and 1.2 h and 2.5 h
same,"t 1/2 of mexiletine, mean","[3]; oral 5 mg mexiletine free base equivalents/kg, ln2/mean k",1.9^b h
same,"Cmax of mexiletine, mean","[3]; oral 5 mg mexiletine free base equivalents/kg, mean",0.00888 µg/mL
same,"AUC of mexiletine, mean","[3]; oral 5 mg mexiletine free base equivalents/kg, mean (values with extrapolated AUC > 25% omitted)",0.0391 µg·h/mL
same,"Frel, mean","[3]; oral 5 mg mexiletine free base equivalents/kg, mean, vs mexiletine",273%
same,"Tmax of mexiletine, median","[3]; oral 5 mg mexiletine free base equivalents/kg, median value",1^a h
same,"T>50% Cmax of mexiletine, median","[3]; oral 5 mg mexiletine free base equivalents/kg, median value, Hydrochloride",3.9^a h
same,"T>50% Cmax of mexiletine, median","[3]; oral 5 mg mexiletine free base equivalents/kg, median value, listed as MGAA, Hydrochloride",~4.0 h
same,AUC of mexiletine glutamic acid amide (prodrug),[3]; [8],0.269 µg·h/mL and 0.266 µg·h/mL and 0.223 µg·h/mL and 0.32 µg·h/mL and 0.413 µg·h/mL
same,Cmax of mexiletine glutamic acid amide (prodrug),[3]; [8],0.127 µg/mL and 0.186 µg/mL and 0.101 µg/mL and 0.18 µg/mL and 0.138 µg/mL
same,Tmax of mexiletine glutamic acid amide (prodrug),[3]; [8],0.25 h and 0.5 h (2×) and 1.0 h (2×)
same,t 1/2 of mexiletine glutamic acid amide (prodrug),[3]; [8],1.0 h and 0.9 h (2×) and 1.9 h and 1.3 h
same,"t 1/2 of mexiletine glutamic acid amide (prodrug), mean","[3]; oral 5 mg mexiletine free base equivalents/kg, plasma prodrug, ln2/mean k",1.0^b h
same,"AUC of mexiletine glutamic acid amide (prodrug), mean",[3]; [9],0.298 µg·h/mL
same,"Cmax of mexiletine glutamic acid amide (prodrug), mean",[3]; [9],0.146 µg/mL
same,"Tmax of mexiletine glutamic acid amide (prodrug), median","[3]; oral 5 mg mexiletine free base equivalents/kg, plasma prodrug, median value",0.5^a h
same,Coefficient of variation of the response,"[4]; 10 mg/kg (same molar dose level), time of maximal effect of 9-AC (+30 mins)",43.3%
same,Mean ± SEM righting response time,"[4]; drug 1 mg/kg po, 9-AC +10 mins (predrug)",1.98 ± 0.115 s
same,Mean ± SEM righting response time,"[4]; drug 1 mg/kg po, 9-AC +30 mins",3.52 ± 0.398 s
same,Mean ± SEM righting response time,"[4]; drug 1 mg/kg po, 9-AC +60 mins",1.86 ± 0.195 s
same,Mean ± SEM righting response time,"[4]; drug 1 mg/kg po, 9-AC +120 mins",1.07 ± 0.0369 s
same,Mean ± SEM righting response time,"[4]; drug 1 mg/kg po, 9-AC +180 mins",0.714 ± 0.0427 s
same,Mean ± SEM righting response time,"[4]; drug 5 mg/kg po, 9-AC +10 mins (predrug)",2.24 ± 0.208 s
same,Mean ± SEM righting response time,"[4]; drug 5 mg/kg po, 9-AC +60 mins",2.22 ± 0.0828 s
same,Mean ± SEM righting response time,"[4]; drug 5 mg/kg po, 9-AC +120 mins",1.32 ± 0.194 s
same,Mean ± SEM righting response time,"[4]; drug 5 mg/kg po, 9-AC +180 mins",1.11 ± 0.220 s
same,Mean ± SEM righting response time,"[4]; drug 10 mg/kg po, 9-AC +10 mins (predrug)",3.07 ± 0.754 s
same,Mean ± SEM righting response time,"[4]; drug 10 mg/kg po, 9-AC +60 mins",2.33 ± 0.472 s
same,Mean ± SEM righting response time,"[4]; drug 10 mg/kg po, 9-AC +120 mins",1.26 ± 0.105 s
same,Mean ± SEM righting response time,"[4]; drug 10 mg/kg po, 9-AC +180 mins",1.18 ± 0.156 s
same,Mean ± SEM righting response time,"[4]; drug 20 mg/kg po, 9-AC +10 mins (predrug)",1.90 ± 0.274 s
same,Mean ± SEM righting response time,"[4]; drug 20 mg/kg po, 9-AC +60 mins",1.51 ± 0.153 s
same,Mean ± SEM righting response time,"[4]; drug 20 mg/kg po, 9-AC +120 mins",1.18 ± 0.0973 s
same,Mean ± SEM righting response time,"[4]; drug 20 mg/kg po, 9-AC +180 mins",1.03 ± 0.0709 s
same,Mean ± SEM righting response time,"[4]; drug 40 mg/kg po, 9-AC +10 mins (predrug)",2.10 ± 0.077 s
same,Mean ± SEM righting response time,"[4]; drug 40 mg/kg po, 9-AC +60 mins",0.95 ± 0.166 s
same,Mean ± SEM righting response time,"[4]; drug 40 mg/kg po, 9-AC +120 mins",0.669 ± 0.0558 s
same,Mean ± SEM righting response time,"[4]; drug 40 mg/kg po, 9-AC +180 mins",0.570 ± 0.0576 s
same,Bioavailability with respect to mexiletine,[5],near complete
same,AUC of mexiletine,[5]; [10],1.02 µg·h/mL
same,Cmax of mexiletine,[5]; [10],0.104 µg/mL
same,T50% Cmax,[5]; [10],7.64 h
same,F(rel),"[5]; 1 mg/kg mexiletine free base, relative to mexiletine, Hydrochloride, 1 mg/kg",94.9%
same,Effects on righting time,ADR mouse; oral 5 mg/kg,marginal
same,Mean ± SEM righting response time,"ADR mouse; oral 5 mg/kg, +15 mins",5.70 ± 0.864 s
same,Mean ± SEM righting response time,"ADR mouse; oral 5 mg/kg, +30 mins",6.53 ± 0.928 s
same,Mean ± SEM righting response time,"ADR mouse; oral 5 mg/kg, +60 mins",7.13 ± 1.46 s
same,Mean ± SEM righting response time,"ADR mouse; oral 5 mg/kg, +120 mins",9.22 ± 1.44 s
same,Mean ± SEM righting response time,"ADR mouse; oral 5 mg/kg, +180 mins",8.38 ± 0.601 s
same,Mean ± SEM righting response time,"ADR mouse; oral 5 mg/kg, −10 mins (pre dosing)",5.10 ± 0.580 s
same,Mean ± SEM righting response time,"ADR mouse; oral 10 mg/kg, +15 mins",3.14 ± 0.278 s
same,Mean ± SEM righting response time,"ADR mouse; oral 10 mg/kg, +30 mins, listed as MGAA, Hydrochloride, 10 mg/kg",2.74+0.37 secs and 2.74 ± 0.373 secs
same,Mean ± SEM righting response time,"ADR mouse; oral 10 mg/kg, +60 mins",4.41 ± 1.02 s
same,Mean ± SEM righting response time,"ADR mouse; oral 10 mg/kg, +120 mins",5.45 ± 0.529 s
same,Mean ± SEM righting response time,"ADR mouse; oral 10 mg/kg, +180 mins",6.92 ± 1.05 s
same,Mean ± SEM righting response time,"ADR mouse; oral 10 mg/kg, −10 mins (pre dosing), listed as MGAA, Hydrochloride, 10 mg/kg",5.18 ± 0.43 s and 5.18 ± 0.427 s
same,Mean ± SEM righting response time,"ADR mouse; oral 20 mg/kg, +15 mins",4.23 ± 1.09 s
same,Mean ± SEM righting response time,"ADR mouse; oral 20 mg/kg, +30 mins",3.06 ± 0.884 s
same,Mean ± SEM righting response time,"ADR mouse; oral 20 mg/kg, +60 mins",4.05 ± 0.286 s
same,Mean ± SEM righting response time,"ADR mouse; oral 20 mg/kg, +120 mins",5.90 ± 0.568 s
same,Mean ± SEM righting response time,"ADR mouse; oral 20 mg/kg, +180 mins",7.90 ± 1.34 s
same,Mean maximum reduction in righting time,"ADR mouse; oral 20 mg/kg, extended over 3 hours",~60%
same,Mean ± SEM righting response time,"ADR mouse; oral 20 mg/kg, −10 mins (pre dosing)",7.13 ± 1.84 s
same,Simulated gastric fluid (pH 1.1): % remaining after 2 h/37° C.,"[6]; simulated gastric fluid pH 1.1, 2 h",100%
same,Simulated intestinal fluid (pH 6.8): % remaining after 2 h/37° C.,"[6]; simulated intestinal fluid pH 6.8, 2 h",98.3%
